These results are taken from patent US10150757B2, “Quinazolinone derivatives as PARP inhibitors” (Janssen Pharmaceutica NV, priority 2004, dated 2018).

The test has as its target T1, TANK-2 enzyme (Homo sapiens, UniProt Q9H2K2).
T1 construct: made in house
T1 sequence (Q9H2K2 1-1166): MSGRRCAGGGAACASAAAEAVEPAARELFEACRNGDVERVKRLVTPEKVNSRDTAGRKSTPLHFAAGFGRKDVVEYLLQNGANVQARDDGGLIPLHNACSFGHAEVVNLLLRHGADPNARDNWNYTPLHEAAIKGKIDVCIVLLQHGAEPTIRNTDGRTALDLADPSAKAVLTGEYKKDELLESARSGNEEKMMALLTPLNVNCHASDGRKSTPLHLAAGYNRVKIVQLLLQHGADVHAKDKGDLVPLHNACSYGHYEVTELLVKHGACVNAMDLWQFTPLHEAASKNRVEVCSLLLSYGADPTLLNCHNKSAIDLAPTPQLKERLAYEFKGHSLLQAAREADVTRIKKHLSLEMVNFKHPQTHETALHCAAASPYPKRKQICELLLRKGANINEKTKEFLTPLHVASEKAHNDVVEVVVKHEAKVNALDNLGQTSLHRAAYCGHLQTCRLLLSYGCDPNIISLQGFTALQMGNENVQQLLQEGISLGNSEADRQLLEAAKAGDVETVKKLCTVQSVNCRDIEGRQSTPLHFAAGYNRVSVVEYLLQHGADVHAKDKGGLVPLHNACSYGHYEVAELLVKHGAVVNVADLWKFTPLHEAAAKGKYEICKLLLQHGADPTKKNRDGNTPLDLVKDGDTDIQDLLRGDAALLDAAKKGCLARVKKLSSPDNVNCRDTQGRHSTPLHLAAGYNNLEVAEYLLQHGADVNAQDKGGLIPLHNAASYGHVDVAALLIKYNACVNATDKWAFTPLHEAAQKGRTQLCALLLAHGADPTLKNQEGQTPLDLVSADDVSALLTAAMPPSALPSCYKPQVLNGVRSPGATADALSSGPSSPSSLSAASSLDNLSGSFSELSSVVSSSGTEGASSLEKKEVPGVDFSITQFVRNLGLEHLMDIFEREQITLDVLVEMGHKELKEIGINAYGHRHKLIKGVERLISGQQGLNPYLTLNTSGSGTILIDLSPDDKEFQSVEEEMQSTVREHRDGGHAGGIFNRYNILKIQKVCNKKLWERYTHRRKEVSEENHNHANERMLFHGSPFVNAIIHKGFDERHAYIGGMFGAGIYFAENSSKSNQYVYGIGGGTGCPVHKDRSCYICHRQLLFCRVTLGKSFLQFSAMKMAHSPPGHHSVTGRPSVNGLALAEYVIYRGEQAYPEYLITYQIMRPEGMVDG
Nature of the test: In vitro scintillation proximity assay (SPA) for TANK-2 inhibitory activity. The test is classed as biochemical. As to conditions: auto-poly(ADP-ribosyl)ation; 96-well plate results if available, otherwise 384-well; read-out: in vitro SPA assay TANK-2 pIC50 (converted). As to the method: In Vitro Scintillation Proximity Assay (SPA) for TANK-2 Inhibitory Activity
Compounds of the present invention were tested in an in vitro assay based on SPA technology with Ni Flash plates (96 or 384 well).
In principle, the assay relies upon SPA technology for the detection of auto-poly(ADP-ribosyl)ation of TANK-2 protein using [^3H]-nicotinamide adenine dinucleotide ([^3H]-NAD^+) as ADP-ribosyl donor.
A stock solution of [^3H]-NAD^+/NAD was made by adding 64.6 μl of [^3H]-NAD^+ (0.1 mCi/ml, supplier: Perkin Elmer) and 46.7 μl NAD-stock (10.7 mM, stored at −20° C., supplier Roche) to 1888.7 μl assay buffer (60 mM Tris/HCl, pH 7.4; 0.9 mM DTT; 6 mM MgCl2). The TANK-2 enzyme was produced as described in EP1238063. 60 μl of assay buffer, together with 1 μl of compound in DMSO, 20 μl of [^3H]-NAD^+/NAD and 20 μl of TANK-2 enzyme (final concentration 6 μg/ml) was added per well into a 96-well Ni-coated flash plate (Perkin Elmer). After incubation of the mixture for 120 min. at room temperature, the reaction was terminated by adding 60 μl of stop solution (42.6 mg NAD in 6 ml H2O). The plates were covered with a plate sealer and placed in a TopCountNXT™ (Packard) for scintillation counting. Values were expressed as counts per minute (cpm). For each experiment, controls (containing TANK-2 enzyme and DMSO without compound), a blank incubation (containing DMSO but no TANK-2 enzyme or compound) and samples (containing TANK-2 enzyme and compound dissolved in DMSO) were run in parallel. All compounds tested were dissolved and eventually further diluted in DMSO. In first instance, compounds were tested at a concentration of 10^−5M. […] In each test, the blank value was subtracted from both the control and the sample values. The control sample represented maximal TANK-2 enzyme activity. For each sample, the amount of cpm was expressed as a percentage of the mean cpm value of the controls. When appropriate, IC50-values (concentration of the drug, needed to reduce the TANK-2 enzyme activity to 50% of the control) were computed using linear interpolation between the experimental points just above and below the 50% level. Herein the effects of test compounds are expressed as pIC50 (the negative log value of the IC50-value). As reference compounds, 3-aminobenzamide and 4-amino-1,8-naphthalimide were included to validate the SPA assay. Herein the assay was described using 96-well plates. In the assay using 384-well plates the same final concentrations were used and volumes were adapted.
On to `O=c1[nH]c(NCCN2CCN(c3n[nH]c4ccccc34)CC2)nc2ccc(Cl)cc12` [Compound 1], for which the IC50 was greater than 10 µM. The result for `O=c1[nH]c(NCCCN2CCC(O)(c3ccc(Cl)cc3)CC2)nc2ccccc12` [Compound 2] reads greater than 10 µM; that for `CCc1cc2cc(CN3CCN(CCNc4nc5ccccc5c(=O)[nH]4)CC3)ccc2nc1OC` [Compound 3], 1.77 µM. The result for `CC1(C)Cc2c(N)c(Cl)cc(C(=O)NC3CCN(CCCNc4nc(O)c5ccccc5n4)CC3)c2O1` [Compound 4] reads greater than 10 µM. Take `CC1(C)Cc2c(N)c(Cl)cc(C(=O)NC3CCN(CCCCNc4nc(O)c5ccccc5n4)CC3)c2O1` [Compound 5]: the IC50 is greater than 10 µM.

As to `CO[C@@H]1CN(CCCNc2nc(O)c3ccccc3n2)CC[C@@H]1NC(=O)c1cc(Cl)c(N)c2c1OCCC2` [Compound 6], the IC50 is greater than 10 µM. On to `Nc1c(Cl)cc(C(=O)OCC2CCN(CCNc3nc4ccccc4c(=O)[nH]3)CC2)c2c1OCCO2` [Compound 7], for which the IC50 is 0.746 µM. For the compound `CO[C@@H]1CN(CCCNc2nc(O)c3ccccc3n2)CCN1NC(=O)c1cc(Cl)c(N)c2c1OC(C)(C)C2` [Compound 8], the IC50 was greater than 10 µM. The result for `CO[C@H]1CN(CCCNc2nc3ccccc3c(=O)[nH]2)CC[C@H]1NC(=O)c1cc(Cl)cc2c1OC(C)(C)C2` [Compound 18] reads greater than 10 µM. For `O=c1[nH]c(NCCCN2CCC(c3c[nH]c4ccccc34)CC2)nc2ccccc12` [Compound 20], the IC50 is greater than 10 µM. On to `O=c1[nH]c(NCCN2CCC(c3n[nH]c4cc(F)ccc34)CC2)nc2ccccc12` [Compound 21], for which the IC50 was greater than 10 µM. The result for `O=c1[nH]c(NCCCN2CCN(c3n[nH]c4ccccc34)CC2)nc2ccccc12` [Compound 22] reads 8.45 µM; that for `O=C(NC1CCN(CCCNc2nc3ccccc3c(=O)[nH]2)CC1)c1ccccc1` [Compound 23], greater than 10 µM; that for `O=c1[nH]c(NCCCN2CCN(c3nsc4ccccc34)CC2)nc2ccccc12` [Compound 24], greater than 10 µM. Turning to `O=c1[nH]c(NCCCN2CCC(c3n[nH]c4cc(F)ccc34)CC2)nc2ccccc12` [Compound 25], the IC50 was greater than 10 µM. `O=c1[nH]c(NCCCN2CCC(c3noc4cc(F)ccc34)CC2)nc2ccccc12` [Compound 26]: the IC50 was greater than 10 µM. For `O=c1[nH]c(NCCCN2CCN(c3n[nH]c4cc(F)ccc34)CC2)nc2ccccc12` [Compound 27] the value was 7.96 µM; for `CCCCn1cc(C2CCN(CCCNc3nc4ccccc4c(=O)[nH]3)CC2)c2ccccc21` [Compound 28], greater than 10 µM. For `O=c1[nH]c(NCCCN2CCC(n3c(=O)[nH]c4ccccc43)CC2)nc2ccccc12` [Compound 29] the value was greater than 10 µM; for `O=c1[nH]c(NCCN2CCC(Nc3nc4ccccc4c(=O)[nH]3)CC2)nc2ccccc12` [Compound 30], 0.794 µM.

As to `O=c1[nH]c(NCCN2CCC(c3n[nH]c4cc(F)ccc34)CC2)nc2cc(Cl)ccc12` [Compound 31], the IC50 was greater than 10 µM. Turning to `O=c1[nH]c(NCCN2CCC(Nc3n[nH]c(=O)c4ccccc34)CC2)nc2ccccc12` [Compound 33], the IC50 is 0.938 µM. With `O=c1[nH]c(NCCN2CCC(c3n[nH]c4cc(F)ccc34)CC2)nc2ccc(Cl)cc12` [Compound 36], the IC50 was greater than 10 µM.

In the case of `Cc1ccc2nc(NCCN3CCC(c4n[nH]c5cc(F)ccc45)CC3)[nH]c(=O)c2c1` [Compound 37], the IC50 is greater than 10 µM.

Regarding `O=c1[nH]c(NCCN2CCN(c3nc4ccccc4c(=O)[nH]3)CC2)nc2ccccc12` [Compound 38], the IC50 was 0.537 µM.

As to `Cc1cccc2nc(NCCN3CCN(c4n[nH]c5ccccc45)CC3)[nH]c(=O)c12` [Compound 39], the IC50 is greater than 10 µM. For `O=c1nc(NCCCN2CCC(Nc3nccc4ccccc34)CC2)[nH]c2ccccc12` [Compound 40] the value was greater than 10 µM; for `O=c1[nH]c(NCCN2CCN(c3n[nH]c4cc(F)ccc34)CC2)nc2ccccc12` [Compound 41], greater than 10 µM. For `O=c1[nH]c(NCCCN2CCC(Nc3cccc4ccccc34)CC2)nc2ccccc12` [Compound 42] the value was greater than 10 µM. For `Cc1ccc2nc(NCCN3CCN(c4n[nH]c5ccccc45)CC3)[nH]c(=O)c2c1` [Compound 43] the value was greater than 10 µM; for `O=c1[nH]c(NCCN2CCN(c3n[nH]c4ccccc34)CC2)nc2cc(Cl)ccc12` [Compound 44], greater than 10 µM; for `Nc1c(Cl)cc(C(=O)NC2CCN(CCCNc3nc(O)c4ccccc4n3)CC2)c2c1CCO2` [Compound 45], greater than 10 µM. On to `O=C(c1ccc(F)cc1)C1CCN(CCNc2nc3ccccc3c(=O)[nH]2)CC1` [Compound 46], for which the IC50 was greater than 10 µM.
